Laboratory results from patent US8975291B2, “Indoles” (GlaxoSmithKline LLC, priority 2010, dated 2015).

Molecular target: T1, EZH2 within the PRC2 complex (Homo sapiens, UniProt Q15910)
T1 construct: FLAG; made in house; host or cells: Sf9 cells
Assay: EZH2 methyltransferase scintillation proximity assay (SPA) with PRC2 complex
Assay type: biochemical
Settings: 3H-SAM methyl transfer to Histone H3 of HeLa mononucleosomes; read-out: EZH2 pIC50 (converted)
Procedure: Compounds contained herein were evaluated for their ability to inhibit the methyltransferase activity of EZH2 within the PRC2 complex. Human PRC2 complex was prepared by co-expressing each of the 5 member proteins (FLAG-EZH2, EED, SUZ12, RbAp48, AEBP2) in Sf9 cells followed by co-purification. Enzyme activity was measured in a scintillation proximity assay (SPA) where a tritiated methyl group is transferred from 3H-SAM to a lysine residue on Histone H3 of a mononucleosome, purified from HeLa cells. Mononucleosomes were captured on SPA beads and the resulting signal is read on a ViewLux plate reader.
Part A. Compound Preparation
• 1. Prepare 10 mM stock of compounds from solid in 100% DMSO. • 2. Set up an 11-point serial dilution (1:3 dilution, top concentration 10 mM) in 100% DMSO for each test compound in a 384 well plate leaving columns 6 and 18 for DMSO controls. • 3. Dispense […] of compound from the dilution plate into reaction plates (Grenier Bio-One, 384-well, Cat #784075). Part B. Reagent Preparation Prepare the following solutions: • 1. 50 mM Tris-HCl, pH 8: Per 1 L of base buffer, combine 1 M Tris-HCl, pH 8 (50 mL) and distilled water (950 mL). • 2. […] 2× Enzyme Solution: Per 10 mL of 2× Enzyme Solution, combine 1× Assay Buffer and PRC2 complex to provide a final enzyme concentration of 10 nM. • 4. SPA Bead Suspension: Per 1 mL of SPA Bead Suspension, combine PS-PEI coated LEADSeeker beads (40 mg) and ddH2O (1 mL) to provide a final concentration of 40 mg/mL. • 5. 2× Substrate Solution: Per 10 mL of 2× Substrate Solution, combine 1× Assay Buffer (9728.55 uL), 800 ug/mL mononucleosomes (125 uL), 1 mM cold SAM (4 uL), and 7.02 uM 3H-SAM (142.45 uL; 0.55 mCi/mL) to provide a final concentration of 5 ug/mL nucleosomes, 0.2 uM cold SAM, and 0.05 uM 3H-SAM. • 6. 2.67× Quench/Bead Mixture: Per 10 mL of 2.67× Quench/Bead Mixture, combine ddH2O (9358 uL), 10 mM cold SAM (267 uL), 40 mg/mL Bead Suspension (375 uL) to provide a final concentration of 100 uM cold SAM and 0.5 mg/mL SPA beads. Part C. Assay Reaction in 384-well Grenier Bio-One Plates Compound Addition • 1. Dispense […] of 100× Compound to test wells (as noted above). • 2. Dispense […] of 100% DMSO to columns 6 & 18 for high and low controls, respectively. Assay • 1. […] Dispense 5 uL/well of 2× Enzyme Solution to columns 1-17, 19-24. • 3. Spin assay plates for ˜1 minute at 500 rpm. • 4. Stack the assay plates, covering the top plate. • 5. Incubate the compound/DMSO with the enzyme for 30 minutes at room temperature. • 6. Dispense 5 uL/well of 2× Substrate Solution to columns 1-24. • 7. Spin assay plates for ˜1 minute at 500 rpm. • 8. Stack the assay plates, covering the top plate. • 9. Incubate the assay plates at room temperature for 1 hour. Quench/Bead Addition • 1. Dispense 5 uL/well of the 3× Quench/Bead Mixture to columns 1-24. • 2. Seal the top of each assay plate with adhesive TopSeal. • 3. Spin assay plates for ˜1 minute at 500 rpm. • 4. Equilibrate the plates for >20 min. Read Plates • 1. Read the assay plates on the Viewlux Plate Reader utilizing the 613 nm emission filter with a 300 s read time. Reagent addition can be done manually or with automated liquid handler. • The final DMSO concentration in this assay is 1%. • The positive control is in column 6; negative control is in column 18. • Final starting concentration of compounds is 100 μM. Part D. Data Analysis
Percent inhibition was calculated relative to the DMSO control for each compound concentration and the resulting values were fit using standard IC50 fitting parameters within the ABASE data fitting software package.

T1 sequence (Q15910 whole entry): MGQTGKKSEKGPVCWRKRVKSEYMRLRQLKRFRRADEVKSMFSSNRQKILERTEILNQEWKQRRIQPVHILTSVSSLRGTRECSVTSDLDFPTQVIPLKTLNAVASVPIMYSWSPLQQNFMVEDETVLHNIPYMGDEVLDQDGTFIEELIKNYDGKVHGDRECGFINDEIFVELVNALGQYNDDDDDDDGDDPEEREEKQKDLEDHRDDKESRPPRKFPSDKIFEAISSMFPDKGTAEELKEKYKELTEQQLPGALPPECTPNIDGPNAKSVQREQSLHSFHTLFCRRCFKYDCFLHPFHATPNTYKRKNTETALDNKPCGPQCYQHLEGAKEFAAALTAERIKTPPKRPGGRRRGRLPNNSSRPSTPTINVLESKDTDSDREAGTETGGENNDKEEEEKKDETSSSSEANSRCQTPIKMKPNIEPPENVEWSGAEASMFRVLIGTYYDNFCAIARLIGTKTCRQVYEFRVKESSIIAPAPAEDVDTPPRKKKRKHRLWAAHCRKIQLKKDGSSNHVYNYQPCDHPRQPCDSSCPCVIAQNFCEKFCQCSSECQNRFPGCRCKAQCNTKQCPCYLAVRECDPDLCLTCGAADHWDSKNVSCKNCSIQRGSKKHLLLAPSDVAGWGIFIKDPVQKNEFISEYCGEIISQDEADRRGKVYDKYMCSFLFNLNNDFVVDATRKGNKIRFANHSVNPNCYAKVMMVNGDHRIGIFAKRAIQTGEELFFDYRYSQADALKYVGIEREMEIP
T1 sequence (O75530 whole entry partner): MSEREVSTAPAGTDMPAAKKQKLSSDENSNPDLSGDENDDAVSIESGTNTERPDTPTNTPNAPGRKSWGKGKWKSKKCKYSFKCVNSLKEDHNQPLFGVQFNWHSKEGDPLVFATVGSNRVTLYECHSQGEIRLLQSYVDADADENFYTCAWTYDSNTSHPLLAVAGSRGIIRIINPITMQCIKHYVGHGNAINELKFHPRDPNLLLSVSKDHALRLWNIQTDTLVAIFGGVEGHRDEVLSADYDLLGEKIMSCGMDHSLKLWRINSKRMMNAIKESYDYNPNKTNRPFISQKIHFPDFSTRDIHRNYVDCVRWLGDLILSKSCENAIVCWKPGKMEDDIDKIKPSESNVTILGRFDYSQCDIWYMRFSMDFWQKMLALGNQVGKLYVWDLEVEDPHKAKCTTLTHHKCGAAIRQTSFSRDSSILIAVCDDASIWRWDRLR
T1 sequence (Q15022 whole entry partner): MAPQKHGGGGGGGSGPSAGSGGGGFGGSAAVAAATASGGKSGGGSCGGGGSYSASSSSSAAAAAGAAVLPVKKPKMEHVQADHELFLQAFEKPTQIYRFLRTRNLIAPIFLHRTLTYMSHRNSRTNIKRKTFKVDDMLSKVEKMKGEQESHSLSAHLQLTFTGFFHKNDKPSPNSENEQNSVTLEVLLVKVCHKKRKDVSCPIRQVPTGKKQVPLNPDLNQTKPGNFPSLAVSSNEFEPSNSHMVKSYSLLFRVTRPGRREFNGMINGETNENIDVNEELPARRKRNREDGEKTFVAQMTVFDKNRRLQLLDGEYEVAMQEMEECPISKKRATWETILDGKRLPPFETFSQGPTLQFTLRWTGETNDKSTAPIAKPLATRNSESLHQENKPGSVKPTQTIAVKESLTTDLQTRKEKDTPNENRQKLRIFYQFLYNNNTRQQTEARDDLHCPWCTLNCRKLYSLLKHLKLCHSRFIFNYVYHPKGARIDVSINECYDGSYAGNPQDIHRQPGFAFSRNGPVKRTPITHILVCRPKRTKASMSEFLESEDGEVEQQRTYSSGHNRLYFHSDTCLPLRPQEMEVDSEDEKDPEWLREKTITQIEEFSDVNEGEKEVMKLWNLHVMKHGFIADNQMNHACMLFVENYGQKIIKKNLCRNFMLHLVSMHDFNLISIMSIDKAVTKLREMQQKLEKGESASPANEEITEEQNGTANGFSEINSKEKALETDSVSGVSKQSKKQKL
T1 sequence (Q09028 whole entry partner): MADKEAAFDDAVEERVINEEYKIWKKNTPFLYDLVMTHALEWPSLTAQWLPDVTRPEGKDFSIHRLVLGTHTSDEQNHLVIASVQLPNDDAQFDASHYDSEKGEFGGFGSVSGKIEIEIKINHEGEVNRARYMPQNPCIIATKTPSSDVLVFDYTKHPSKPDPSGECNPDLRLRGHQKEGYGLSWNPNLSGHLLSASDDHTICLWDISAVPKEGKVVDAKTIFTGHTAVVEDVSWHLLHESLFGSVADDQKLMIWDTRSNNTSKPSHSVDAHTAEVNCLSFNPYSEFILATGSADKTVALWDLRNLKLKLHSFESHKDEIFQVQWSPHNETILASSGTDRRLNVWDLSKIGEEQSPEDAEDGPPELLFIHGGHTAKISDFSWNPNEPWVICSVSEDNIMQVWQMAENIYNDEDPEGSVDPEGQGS
T1 sequence (Q6ZN18 whole entry partner): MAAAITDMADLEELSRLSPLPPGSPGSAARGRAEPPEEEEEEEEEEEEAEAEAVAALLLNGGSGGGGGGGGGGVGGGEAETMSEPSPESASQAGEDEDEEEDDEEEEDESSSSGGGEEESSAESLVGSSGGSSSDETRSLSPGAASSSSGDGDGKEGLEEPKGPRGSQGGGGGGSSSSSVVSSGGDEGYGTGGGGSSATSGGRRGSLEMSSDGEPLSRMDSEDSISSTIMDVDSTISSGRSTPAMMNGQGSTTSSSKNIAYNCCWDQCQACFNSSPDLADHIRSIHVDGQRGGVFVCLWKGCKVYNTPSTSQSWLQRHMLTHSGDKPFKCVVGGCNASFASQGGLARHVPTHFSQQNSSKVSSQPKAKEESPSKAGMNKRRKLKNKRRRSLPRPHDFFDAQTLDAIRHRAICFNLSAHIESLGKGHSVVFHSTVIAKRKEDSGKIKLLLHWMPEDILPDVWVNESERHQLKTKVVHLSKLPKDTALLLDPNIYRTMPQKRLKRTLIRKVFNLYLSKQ

IC50 [µM] | Structure (SMILES)
0.0363 | Cc1cc(C)c(CNC(=O)c2cc(-c3ccc(CN4C[C@@H](C)O[C@@H](C)C4)nc3)cc3c2c(C)cn3C(C)C)c(=O)[nH]1 [Example 348, 6-(6-{[(2R,6S)-2,6-dimethyl-4-morpholinyl]methyl}-3-pyridinyl)-N-[(4,6-dimethyl-2-oxo-1,2-dihydro-3-pyridinyl)methyl]-3-methyl-1-(1-methylethyl)-1H-indole-4-carboxamide]
0.0251 | Cc1cc(C)c(CNC(=O)c2cc(-c3ccc(CN4CCN(C)CC4)nc3)cc3c2c(C)cn3C(C)C)c(=O)[nH]1 [Example 349, N-[(4,6-dimethyl-2-oxo-1,2-dihydro-3-pyridinyl)methyl]-3-methyl-1-(1-methylethyl)-6-{6-[(4-methyl-1-piperazinyl)methyl]-3-pyridinyl}-1H-indole-4-carboxamide]
0.0229 | Cc1cc(C)c(CNC(=O)c2cc(-c3ccc(CN4CCOCC4)nc3)cc3c2c(C)cn3C(C)C)c(=O)[nH]1 [Example 350, N-[(4,6-dimethyl-2-oxo-1,2-dihydro-3-pyridinyl)methyl]-3-methyl-1-(1-methylethyl)-6-[6-(4-morpholinylmethyl)-3-pyridinyl]-1H-indole-4-carboxamide]
0.468 | Cc1cc(C)c(CNC(=O)c2cc(B(O)O)cc3c2c(C)cn3C(C)C)c(=O)[nH]1 [Example 358, [4-({[(4,6-dimethyl-2-oxo-1,2-dihydro-3-pyridinyl)methyl]amino)carbonyl)-3-methyl-1-(1-methylethyl)-1H-indol-6-yl]boronic acid]
0.0589 | Cc1cc(C)c(CNC(=O)c2cc(-c3ccc(CO)nc3)cc3c2c(C)cn3C(C)C)c(=O)[nH]1 [Example 359, N-[(4,6-dimethyl-2-oxo-1,2-dihydro-3-pyridinyl)methyl]-6-[6-(hydroxymethyl)-3-pyridinyl]-3-methyl-1-(1-methylethyl)-1H-indole-4-carboxamide]
0.288 | Cc1cc(C)c(CNC(=O)c2cc(C3COC3)cc3c2c(C)cn3C(C)C)c(=O)[nH]1 [Example 360, N-[(4,6-dimethyl-2-oxo-1,2-dihydro-3-pyridinyl)methyl]-3-methyl-1-(1-methylethyl)-6-(3-oxetanyl)-1H-indole-4-carboxamide]

Same assay, conditions: EZH2 inhibition, foregoing or analogous assay; unit inferred; read-out: IC50

IC50 [µM] | Structure (SMILES)
1.8 | Cc1cc(C)c(CNC(=O)c2cc(Br)cc3c2c(C)cn3CC(C)N(C)C)c(=O)[nH]1 (centres unmarked) [Ex 78, 6-bromo-N-((4,6-dimethyl-2-oxo-1,2-dihydropyridin-3-yl)methyl)-1-(2-(dimethylamino)propyl)-3-methyl-1H-indole-4-carboxamide]
0.018 | Cc1cc(C)c(CNC(=O)c2cc(-c3ccc(OCCN(C)C)cc3)cc3c2c(C)cn3C(C)C)c(=O)[nH]1 [Ex 174, 6-(4-{[2-(dimethylamino)ethyl]oxy}phenyl)-N-[(4,6-dimethyl-2-oxo-1,2-dihydro-3-pyridinyl)methyl]-3-methyl-1-(1-methylethyl)-1H-indole-4-carboxamide]
0.014 | Cc1cc(C)c(CNC(=O)c2cc(-c3ccc4[nH]cnc4c3)cc3c2c(C)cn3C(C)C)c(=O)[nH]1 [Ex 211, 6-(1H-benzimidazol-5-yl)-N-[(4,6-dimethyl-2-oxo-1,2-dihydro-3-pyridinyl)methyl]-3-methyl-1-(1-methylethyl)-1H-indole-4-carboxamide]
0.009 | Cc1cc(C)c(CNC(=O)c2cc(-c3ccc4c(N)n[nH]c4c3)cc3c2c(C)cn3C(C)C)c(=O)[nH]1 [Ex 212, 6-(3-amino-1H-indazol-6-yl)-N-[(4,6-dimethyl-2-oxo-1,2-dihydro-3-pyridinyl)methyl]-3-methyl-1-(1-methylethyl)-1H-indole-4-carboxamide]
1 | Cc1cc(Cn2cccn2)c(CNC(=O)c2cc(Br)cc3c2c(C)cn3C(C)C)c(=O)[nH]1 [Ex 234, 6-bromo-3-methyl-1-(1-methylethyl)-N-{[6-methyl-2-oxo-4-(1H-pyrazol-1-ylmethyl)-1,2-dihydro-3-pyridinyl]methyl}-1H-indole-4-carboxamide]
0.029 | Cc1cc(C)c(CNC(=O)c2cc(-c3cc4[nH]ncc4cn3)cc3c2c(C)cn3C(C)C)c(=O)[nH]1 [Ex 244, N-((4,6-dimethyl-2-oxo-1,2-dihydropyridin-3-yl)methyl)-1-isopropyl-3-methyl-6-(1H-pyrazolo[4,3-c]pyridin-6-yl)-1H-indole-4-carboxamide]
0.025 | CCC(C)n1cc(C)c2c(C(=O)NCc3c(C)cc(C)[nH]c3=O)cc(Br)cc21 (centres unmarked) [Ex 266, 6-bromo-1-(sec-butyl)-N-((4,6-dimethyl-2-oxo-1,2-dihydropyridin-3-yl)methyl)-3-methyl-1H-indole-4-carboxamide]
0.02 | CC[C@H](C)n1cc(C)c2c(C(=O)NCc3c(C)cc(C)[nH]c3=O)cc(Br)cc21 [Ex 267, (S)-6-bromo-1-(sec-butyl)-N-((4,6-dimethyl-2-oxo-1,2-dihydropyridin-3-yl)methyl)-3-methyl-1H-indole-4-carboxamide]
0.04 | CC[C@@H](C)n1cc(C)c2c(C(=O)NCc3c(C)cc(C)[nH]c3=O)cc(Br)cc21 [Ex 268, (R)-6-Bromo-1-(sec-butyl)-N-((4,6-dimethyl-2-oxo-1,2-dihydropyridin-3-yl)methyl)-3-methyl-1H-indole-4-carboxamide]
0.013 | CCC(C)n1cc(C)c2c(C(=O)NCc3c(C)cc(C)[nH]c3=O)cc(-c3cccc(CN(C)C)c3)cc21 (centres unmarked) [Ex 272, 1-(sec-Butyl)-N-((4,6-dimethyl-2-oxo-1,2-dihydropyridin-3-yl)methyl)-6-(3-((dimethylamino)methyl)phenyl)-3-methyl-1H-indole-4-carboxamide]
0.01 | CC[C@H](C)n1cc(C)c2c(C(=O)NCc3c(C)cc(C)[nH]c3=O)cc(-c3cccc(CN(C)C)c3)cc21 [Ex 273, 6-{3-[(Dimethylamino)methyl]phenyl}-N-[(4,6-dimethyl-2-oxo-1,2-dihydro-3-pyridinyl)methyl]-3-methyl-1-[(1S)-1-methylpropyl]-1H-indole-4-carboxamide]
0.032 | CC[C@@H](C)n1cc(C)c2c(C(=O)NCc3c(C)cc(C)[nH]c3=O)cc(-c3cccc(CN(C)C)c3)cc21 [Ex 274, 6-{3-[(dimethylamino)methyl]phenyl}-N-[(4,6-dimethyl-2-oxo-1,2-dihydro-3-pyridinyl)methyl]-3-methyl-1-[(1R)-1-methylpropyl]-1H-indole-4-carboxamide]
0.003 | Cc1cc(C)c(CNC(=O)c2cc(-c3ccc(N4CCNCC4)nc3)cc3c2c(C)cn3C2CCCC2)c(=O)[nH]1 [Ex 275, 1-cyclopentyl-N-((4,6-dimethyl-2-oxo-1,2-dihydropyridin-3-yl)methyl)-3-methyl-6-(6-(piperazin-1-yl)pyridin-3-yl)-1H-indole-4-carboxamide]
0.013 | Cc1cc(C)c(CNC(=O)c2cc(-c3ccc(N4CCNC(C)(C)C4)nc3)cc3c2c(C)cn3C(C)C)c(=O)[nH]1 [Ex 339, N-[(4,6-dimethyl-2-oxo-1,2-dihydro-3-pyridinyl)methyl]-6-[6-(3,3-dimethyl-1-piperazinyl)-3-pyridinyl]-3-methyl-1-(1-methylethyl)-1H-indole-4-carboxamide]
